Measurements from ChEMBL document CHEMBL3098094, “Synthesis and biological evaluation of novel N-substituted 1H-dibenzo[a,c]carbazole derivatives of dehydroabietic acid as potential antimicrobial agents” (2014).
In brackets after ≈: the same amount, converted by molar mass.

Legend:
Format in all cases: functional
Pseudomonas fluorescens = assay: Antimicrobial activity against Pseudomonas fluorescens CGMCC1.1828 after 24 hrs by twofold serial microdilution method; settings: CGMCC1.1828, 24 h
Staphylococcus aureus = assay: Antimicrobial activity against Staphylococcus aureus CGMCC1.1361 after 24 hrs by twofold serial microdilution method; settings: CGMCC1.1361, 24 h
Candida albicans = assay: Antimicrobial activity against Candida albicans CGMCC2.2086 after 48 hrs by twofold serial microdilution method; settings: CGMCC2.2086, 48 h
Aspergillus niger = assay: Antimicrobial activity against Aspergillus niger CGMCC3.316 after 48 hrs by twofold serial microdilution method; settings: CGMCC3.316, 48 h
Bacillus subtilis = assay: Antimicrobial activity against Bacillus subtilis CGMCC1.1162 after 24 hrs by twofold serial microdilution method; settings: CGMCC1.1162, 24 h
Candida tropicalis = assay: Antimicrobial activity against Candida tropicalis CGMCC2.3967 after 48 hrs by twofold serial microdilution method; settings: CGMCC2.3967, 48 h
Escherichia coli = assay: Antimicrobial activity against Escherichia coli CGMCC1.1571 after 24 hrs by twofold serial microdilution method; settings: CGMCC1.1571, 24 h

| MIC (Pseudomonas fluorescens) [µg/mL] | MIC (Staphylococcus aureus) [µg/mL] | MIC (Candida albicans) [µg/mL] | MIC (Aspergillus niger) [µg/mL] | MIC (Bacillus subtilis) [µg/mL] | MIC (Candida tropicalis) [µg/mL] | MIC (Escherichia coli) [µg/mL] | Compound |
| --- | --- | --- | --- | --- | --- | --- | --- |
| 31.2 (≈ 57.2 µM) | 31.2 (≈ 57.2 µM) | 31.2 (≈ 57.2 µM) | > 100 | 31.2 (≈ 57.2 µM) | 62.5 (≈ 115 µM) | 31.2 (≈ 57.2 µM) | COC(=O)[C@]1(C)CCC[C@]2(C)c3ccc(C(C)C)cc3-c3c(c4ccccc4n3CCn3cnc4ccccc43)[C@@H]12 |
| > 100 | > 100 | > 100 | > 100 | 62.5 (≈ 117 µM) | > 100 | > 100 | COC(=O)[C@]1(C)CCC[C@]2(C)c3ccc(C(C)C)cc3-c3c(c4ccccc4n3CCNc3ccc(C)cc3)[C@@H]12 |
| 62.5 (≈ 126 µM) | 31.2 (≈ 62.7 µM) | > 100 | > 100 | 31.2 (≈ 62.7 µM) | > 100 | 62.5 (≈ 126 µM) | COC(=O)[C@]1(C)CCC[C@]2(C)c3ccc(C(C)C)cc3-c3c(c4ccccc4n3CCn3ncnn3)[C@@H]12 |
| > 100 | 15.6 (≈ 31.5 µM) | 62.5 (≈ 126 µM) | > 100 | 31.2 (≈ 62.9 µM) | > 100 | 62.5 (≈ 126 µM) | COC(=O)[C@]1(C)CCC[C@]2(C)c3ccc(C(C)C)cc3-c3c(c4ccccc4n3CCn3ccnc3)[C@@H]12 |
| > 100 | 62.5 (≈ 104 µM) | > 100 | > 100 | 31.2 (≈ 52 µM) | > 100 | > 100 | COC(=O)[C@]1(C)CCC[C@]2(C)c3ccc(C(C)C)cc3-c3c(c4ccccc4n3CCNc3ccc(Br)cc3)[C@@H]12 |
| 15.6 (≈ 31.3 µM) | 31.2 (≈ 62.7 µM) | 31.2 (≈ 62.7 µM) | > 100 | 7.8 (≈ 15.7 µM) | 62.5 (≈ 126 µM) | 31.2 (≈ 62.7 µM) | COC(=O)[C@]1(C)CCC[C@]2(C)c3ccc(C(C)C)cc3-c3c(c4ccccc4n3CCn3cnnn3)[C@@H]12 |
| 31.2 (≈ 62.8 µM) | 31.2 (≈ 62.8 µM) | > 100 | > 100 | 7.8 (≈ 15.7 µM) | > 100 | 15.6 (≈ 31.4 µM) | COC(=O)[C@]1(C)CCC[C@]2(C)c3ccc(C(C)C)cc3-c3c(c4ccccc4n3CCn3ccnn3)[C@@H]12 |
| 62.5 (≈ 113 µM) | 31.2 (≈ 56.2 µM) | 62.5 (≈ 113 µM) | > 100 | 31.2 (≈ 56.2 µM) | > 100 | > 100 | COC(=O)[C@]1(C)CCC[C@]2(C)c3ccc(C(C)C)cc3-c3c(c4ccccc4n3CCNc3ccc(Cl)cc3)[C@@H]12 |

The remaining lines, values behind:

| Compound | MIC (Pseudomonas fluorescens) [µg/mL] | MIC (Staphylococcus aureus) [µg/mL] | MIC (Candida albicans) [µg/mL] | MIC (Aspergillus niger) [µg/mL] | MIC (Bacillus subtilis) [µg/mL] | MIC (Candida tropicalis) [µg/mL] | MIC (Escherichia coli) [µg/mL] |
| --- | --- | --- | --- | --- | --- | --- | --- |
| COC(=O)[C@]1(C)CCC[C@]2(C)c3ccc(C(C)C)cc3-c3c(c4ccccc4n3CCN(CCO)CCO)[C@@H]12 | 62.5 (≈ 117 µM) | > 100 | 62.5 (≈ 117 µM) | > 100 | 62.5 (≈ 117 µM) | 31.2 (≈ 58.6 µM) | 62.5 (≈ 117 µM) |
| COC(=O)[C@]1(C)CCC[C@]2(C)c3ccc(C(C)C)cc3-c3c(c4ccccc4n3CCN3CCCC3)[C@@H]12 | > 100 | 62.5 (≈ 125 µM) | > 100 | > 100 | 31.2 (≈ 62.6 µM) | > 100 | > 100 |
| COC(=O)[C@]1(C)CCC[C@]2(C)c3ccc(C(C)C)cc3-c3c(c4ccccc4n3CCN3CCOCC3)[C@@H]12 | 31.2 (≈ 60.6 µM) | 7.8 (≈ 15.2 µM) | 62.5 (≈ 121 µM) | 62.5 (≈ 121 µM) | 15.6 (≈ 30.3 µM) | 31.2 (≈ 60.6 µM) | 31.2 (≈ 60.6 µM) |
| COC(=O)[C@]1(C)CCC[C@]2(C)c3ccc(C(C)C)cc3-c3c(c4ccccc4n3CCN3CCCCC3)[C@@H]12 | 62.5 (≈ 122 µM) | 62.5 (≈ 122 µM) | > 100 | > 100 | 15.6 (≈ 30.4 µM) | 62.5 (≈ 122 µM) | > 100 |
| COC(=O)[C@]1(C)CCC[C@]2(C)c3ccc(C(C)C)cc3-c3c(c4ccccc4n3CCNc3ccc(OC)cc3)[C@@H]12 | > 100 | 62.5 (≈ 113 µM) | > 100 | > 100 | > 100 | > 100 | > 100 |
| CC(=O)N1CCN(c2ccc(OCC3COC(Cn4ccnc4)(c4ccc(Cl)cc4Cl)O3)cc2)CC1 (racemic) [KETOCONAZOLE] |  |  | 3.9 (≈ 7.34 µM) | 7.8 (≈ 14.7 µM) |  | 3.9 (≈ 7.34 µM) |  |
| COC(=O)[C@]1(C)CCC[C@]2(C)c3ccc(C(C)C)cc3-c3c(c4ccccc4n3CCBr)[C@@H]12 | > 100 | 62.5 (≈ 123 µM) | > 100 | > 100 | 31.2 (≈ 61.4 µM) | > 100 | > 100 |
| COC(=O)[C@]1(C)CCC[C@]2(C)c3ccc(C(C)C)cc3-c3c(c4ccccc4n3CCn3c([N+](=O)[O-])cnc3C)[C@@H]12 | 7.8 (≈ 14.1 µM) | 1.9 (≈ 3.43 µM) | 31.2 (≈ 56.2 µM) | > 100 | 0.9 (≈ 1.62 µM) | 31.2 (≈ 56.2 µM) | 7.8 (≈ 14.1 µM) |
| COC(=O)[C@]1(C)CCC[C@]2(C)c3ccc(C(C)C)cc3C(=O)C[C@@H]12 | 62.5 (≈ 190 µM) | 31.2 (≈ 95 µM) | > 100 | > 100 | 31.2 (≈ 95 µM) | > 100 | > 100 |
| COC(=O)[C@]1(C)CCC[C@]2(C)c3ccc(C(C)C)cc3-c3[nH]c4ccccc4c3[C@@H]12 | 62.5 (≈ 156 µM) | 62.5 (≈ 156 µM) | > 100 | > 100 | 31.2 (≈ 77.7 µM) | > 100 | > 100 |
| CCCN(CCC)CCn1c2c(c3ccccc31)[C@H]1[C@](C)(C(=O)OC)CCC[C@]1(C)c1ccc(C(C)C)cc1-2 | 31.2 (≈ 59 µM) | 31.2 (≈ 59 µM) | 31.2 (≈ 59 µM) | > 100 | 15.6 (≈ 29.5 µM) | 62.5 (≈ 118 µM) | 31.2 (≈ 59 µM) |
| CCN(CC)CCn1c2c(c3ccccc31)[C@H]1[C@](C)(C(=O)OC)CCC[C@]1(C)c1ccc(C(C)C)cc1-2 | 62.5 (≈ 125 µM) | 62.5 (≈ 125 µM) | 62.5 (≈ 125 µM) | > 100 | 31.2 (≈ 62.3 µM) | > 100 | > 100 |
| COC(=O)[C@]1(C)CCC[C@]2(C)c3ccc(C(C)C)cc3-c3c(c4ccccc4n3CCN3CCNCC3)[C@@H]12 | 15.6 (≈ 30.4 µM) | 15.6 (≈ 30.4 µM) | 31.2 (≈ 60.7 µM) | 62.5 (≈ 122 µM) | 7.8 (≈ 15.2 µM) | 31.2 (≈ 60.7 µM) | 15.6 (≈ 30.4 µM) |
| COC(=O)[C@]1(C)CCC[C@]2(C)c3ccc(C(C)C)cc3-c3c(c4ccccc4n3CCN(C)C)[C@@H]12 | 62.5 (≈ 132 µM) | > 100 | > 100 | > 100 | 62.5 (≈ 132 µM) | > 100 | > 100 |
| NCC[C@H](O)C(=O)N[C@@H]1C[C@H](N)[C@@H](O[C@H]2O[C@H](CN)[C@@H](O)[C@H](O)[C@H]2O)[C@H](O)[C@H]1O[C@H]1O[C@H](CO)[C@@H](O)[C@H](N)[C@H]1O.O=S(=O)(O)O | 0.9 | 0.9 |  |  | 0.9 |  | 1.9 |
| CCCCN(CCCC)CCn1c2c(c3ccccc31)[C@H]1[C@](C)(C(=O)OC)CCC[C@]1(C)c1ccc(C(C)C)cc1-2 | 15.6 (≈ 28 µM) | 15.6 (≈ 28 µM) | 31.2 (≈ 56 µM) | 62.5 (≈ 112 µM) | 15.6 (≈ 28 µM) | 31.2 (≈ 56 µM) | 31.2 (≈ 56 µM) |
| COC(=O)[C@]1(C)CCC[C@]2(C)c3ccc(C(C)C)cc3-c3c(c4ccccc4n3CCN3CCN(C)CC3)[C@@H]12 | 7.8 (≈ 14.8 µM) | 1.9 (≈ 3.6 µM) | 7.8 (≈ 14.8 µM) | 7.8 (≈ 14.8 µM) | 3.9 (≈ 7.39 µM) | 7.8 (≈ 14.8 µM) | 15.6 (≈ 29.6 µM) |
| COC(=O)[C@]1(C)CCC[C@]2(C)c3ccc(C(C)C)cc3-c3c(c4ccccc4n3CCNc3ccc([N+](=O)[O-])cc3)[C@@H]12 | 15.6 (≈ 27.6 µM) | 7.8 (≈ 13.8 µM) | 31.2 (≈ 55.2 µM) | > 100 | 15.6 (≈ 27.6 µM) | 62.5 (≈ 110 µM) | 31.2 (≈ 55.2 µM) |
